Experimental findings from patent publication US8071645B2, “Systems and methods for treating human inflammatory and proliferative diseases and wounds, with fatty acid metabolism inhibitors and/or glycolytic inhibitors” (The Regents of the University of Colorado, priority 2003, dated 2011) are described below.

In assay [1] the test system is HL60 MDR cells. Nature of the assay: % death of HL60 MDR cells by flow cytometry. It is filed as cell-based, human. To be noted: for HL60 MDR % Death: Table 1, 25 ug/mL Cerulenin. The protocol: (§1) Dot plots as a function of live versus dead cells. The cells were cultured at a concentration of 0.5 to 1 million cells per ml. Cells were untreated or treated with etomoxir or 2-deoxy-D-glucose at a concentration of 2.5 mM at the indicated concentrations for either 24 or 48 hours. In additional experiments, under each of these culture conditions, the cells were cultured for 24 hours at which time point, polyclonal anti-UCP-2 was added at a 1:1000 dilution of stock provided by Alpha Diagnostics, San Antonio, Tex. Cells were harvested and analyzed by flow cytometry. Each dot on the dot plots of FIGS. 1, 3, 5, 7, 9, and 11 represents one cell. Five thousand cells were assessed for forward scatter (FS), as a function of cell size, versus side scatter (SS), as a function of cellular granularity. The upper ellipse represents live cells by these criterion and the lower ellipse in each dot plot represents the dead cells.
(§2) Statistical Analysis, Percents, and Geometric Mean Values Percents. Gating is a tool provided by Cell Quest software and allows for the analysis of a certain population of cells. Gating around both the live and dead cell populations gave a percent of the cell numbers that was in each population. After the gates were drawn, a percent value of dead cells was calculated by taking the number of dead cells divided by the number of total cells and multiplying by one hundred.
(§3) This example illustrates an embodiment of the invention, where multi-drug resistant cancer cells were exposed to compositions of the invention. Analysis of the cells was performed using flow cytometry. The flow cytometry experiments were performed as follows. The cells were harvested, counted, and resuspended as described above. For DNA staining, the cells were washed and resuspended in ice-cold PBS and fixed by the dropwise addition of 95% ethanol. The cells were then incubated for 30 minutes on ice, washed, and resuspended in PBS containing 1% formaldehyde and 0.01% Tween. The cells were incubated with 50 units of DNAse and washed with PBS containing 5% DNAse. The cells were then incubated with anti DNA Fab (166, kind gift of Dr. Susan Wallace, University of Vermont), then washed and stained with a fluorescein conjugated second step anti-mouse immunoglobulin. The cells were then washed and resuspended in PBS/3% BSA/1% formaldehyde. The cells were stained for intracellular H2O2 using 6-carboxy-2′,7′-dichlorodihydrofluorescein diacetate (DCF-DA, Molecular Probes, Eugene, Oreg.). The cells were incubated with 1 mM DCF-DA for 20 minutes, washed twice in PBS containing 5% fetal calf serum and analyzed using flow cytometry. The mitochondrial membrane potential was assessed using MitoTracker Red (CM-H2XROS, Molecular Probes, Eugene, Oreg.). The cells were resuspended in warm (37° C.) PBS containing a final concentration of 0.5 micromolar of dye. The cells were then incubated for 30 minutes, pelleted, and resuspended in prewarmed medium for analysis. The data was acquired on a Coulter Elite Epics or Excel flow cytometer (Coulter, Hialeah, Fla.) and analyzed with CellQuest software, (Becton Dickinson, San Jose, Calif.). […] Each sample population was classified for cell size (forward scatter) and complexity (side scatter), gated on a population of interest and evaluated using 40,000 cells. Each figure describing flow cytometric data represents one of at least four replicate experiments.
All cell lines in this example were cultured in RPMI 1640 culture medium. The medium was supplemented with 5% fetal bovine serum (“FBS”), 2 mM L-Glutamine, 500 units/mL pennicillin/500 micrograms/mL of streptomycin, 10 mM HEPES Buffer, 10^−5 M 2-mercaptoethanol (“2-ME”), 1 mM MEM Sodium Pyruvate, and 0.04 micrograms/mL of Gentamicin (All reagents from Gibco BRL). The cells were maintained at 37° C. in a humidified atmosphere under 5% CO2 in air using standard cell culture techniques known to those of ordinary skill in the art. […]
For orientation: A flow cytometer gives signals particle by particle.

Assay [2] deals with RD cells (rhabdomyosarcoma cells). Nature of the assay: percent death of RD cells by flow cytometry. It is filed as cell-based. The protocol:
as §1, §2
Referring to FIGS. 29 and 30, RD cells (rhabdomyosarcoma cells—not drug resistant), cultured as described above under “Materials and Methods” were untreated or treated with etomoxir, with 2-deoxy-D-glucose, or with a combination of etomoxir and 2-deoxy-D-glucose, at concentrations indicated in FIG. 29 for 24 hours. Cells were harvested and analyzed by flow cytometry. […] The percent of cell deaths for RD cells after 24 hours was: (a) 31% when untreated, (b) 57% when treated with etomoxir alone, (c) 46% when treated with 2-deoxy-D-glucose alone, and (d) 66% when treated with the combination of etomoxir and 2-deoxy-D-glucose.
Referring to FIGS. 33 and 34, RD cells, cultured as described in Example 22, were untreated or treated with etomoxir, with 2-deoxy-D-glucose, or with a combination of etomoxir and 2-deoxy-D-glucose, at concentrations indicated in FIG. 33 for 48 hours. Cells were harvested and analyzed by flow cytometry. […] The percent of cell deaths for RD cells after 48 hours was: (a) 36% when untreated, (b) 64% when treated with etomoxir alone, (c) 63% when treated with 2-deoxy-D-glucose alone, and (d) 68% when treated with the combination of etomoxir and 2-deoxy-D-glucose.

A further assay has as its system HL60 MDR tumor. Put plainly: HL60 MDR tumor implanted in nude mice, tumor volume. It is filed as in vivo. An excerpt: Tumor implantation. Mice were purchased from the Animal Production Program of National Cancer Institute, Frederick, Md. The animals used were Athymic Ncr-nu/nu (strain code 01B74). HL60 MDR cells were harvested and reconstituted at 1 million cells per 100 microliters of phosphate buffered saline. One million tumor cells per injection site were implanted subcutaneously on two sites of the animal's back. Treatments began at exactly seven days post tumor implantation. Tumor size/volume was monitored twice weekly using measurement calipers, with the formula Tumor Volume=π×(short diameter)^2×(long diameter)/6.
Mice experiments with fatty acid metabolism and glycolytic inhibitors. Fatty acid metabolism inhibitors were exemplified by etomoxir at 200 micrograms/day. Glycolytic inhibitors were exemplified by 2-deoxy-D-glucose at 2.5 mM in 100 microliters daily. The combination was administered daily, etomoxir at 200 micrograms and 2-deoxy-D-glucose at 2.5 mM in 100 microliters. All drugs were administered intra-peritoneally. 5-Fluoro-uracil, at 20 mg per kilogram mouse, was injected intra-peritoneally once a week
HL60 MDR human leukemia cells were cultured and implanted in nude mice as described above under “Materials and Methods”. The mice were given 200 ug of Etomoxir, 2.5 mM 2-Deoxy-D-glucose, or both 200 ug of Etomoxir and 2.5 mM 2-Deoxy-D-glucose given daily by IP injection. Treatment began exactly one week after tumor implantation.

The test system of assay [3] is B16F1 melanoma cells. Put plainly: % death of B16F1 cells by flow cytometry. The assay is classed as cell-based. The protocol:
as §2, §3
All cell lines in this example were cultured in RPMI 1640 culture medium. The medium was supplemented with 5% fetal bovine serum (“FBS”), 2 mM L-Glutamine, 500 units/mL pennicillin/500 micrograms/mL of streptomycin, 10 mM HEPES Buffer, 10^−5 M 2-mercaptoethanol (“2-ME”), 1 mM MEM Sodium Pyruvate, and 0.04 micrograms/mL of Gentamicin (All reagents from Gibco BRL). The cells were maintained at 37° C. in a humidified atmosphere under 5% CO2 in air using standard cell culture techniques known to those of ordinary skill in the art.
The flow cytometry experiments were performed as follows. Once the samples were prepared and transferred into flow cytometric tubes, the samples were analyzed on a Becton/Dickinson Flow Cytometer. For antibodies that were PE conjugated and for the MitoTracker Red experiments, a program for red-colored fluorochromes was utilized. […] Statistical analysis, percents, and geometric mean values percents were calculated as described above.

Assay [4] concerns HL60 cells. Nature of the assay: % death of HL60 cells by flow cytometry. It is filed as cell-based, human. Conditions: Table 1, 25 ug/mL Cerulenin. The protocol: as §2
(§4) This example illustrates an embodiment of the invention, where multi-drug resistant cancer cells were exposed to compositions of the invention. Analysis of the cells was performed using flow cytometry. The flow cytometry experiments were performed as follows. The cells were harvested, counted, and resuspended as described above. […] The cells were incubated with 1 mM DCF-DA for 20 minutes, washed twice in PBS containing 5% fetal calf serum and analyzed using flow cytometry. The mitochondrial membrane potential was assessed using MitoTracker Red (CM-H2XROS, Molecular Probes, Eugene, Oreg.). […] The data was acquired on a Coulter Elite Epics or Excel flow cytometer (Coulter, Hialeah, Fla.) and analyzed with CellQuest software, (Becton Dickinson, San Jose, Calif.). […] Each sample population was classified for cell size (forward scatter) and complexity (side scatter), gated on a population of interest and evaluated using 40,000 cells. […]

For a further assay, the system named is L1210 cells. Nature of the assay: % death of L1210 cells by flow cytometry. It is filed as cell-based. To be noted: Table 2; 25 ug/mL Cerulenin; 7.0 Hours. The protocol:
as §2, §4

For the next assay, the system named is L1210 DDP cells. Put plainly: % death of L1210 DDP cells by flow cytometry. The assay is classed as cell-based. Conditions: for L1210 DDP % Death: Table 2, 25 ug/mL Cerulenin. The protocol: as §2
as §4, with “above. For DNA staining, the cells were washed and resuspended in ice-cold PBS and fixed by the dropwise addition of 95% ethanol. The cells were then incubated for 30 minutes on ice, washed, and resuspended in PBS containing 1% formaldehyde and 0.01% Tween. The cells were incubated with 50 units of DNAse and washed with PBS containing 5% DNAse.” for “above.”
The flow cytometry experiments were performed as follows. Once the samples were prepared and transferred into flow cytometric tubes, the samples were analyzed on a Becton/Dickinson Flow Cytometer. […] Statistical analysis, percents, and geometric mean values percents were calculated as described above.

For assay [5], the system named is HL60 cells. Put plainly: microscopy images of HL60 cells treated with cerulenin. It is filed as cell-based, human. To be noted: FIG. 4C. An excerpt: (§5) In FIG. 4, microscopy images of HL60 and HL60 MDR (“multi-drug resistant”) cells treated with cerulenin (“Treated”) and not treated with cerulenin (“No Stn”) are shown.
In assay [6] the test system is HL60 MDR cells. Nature of the assay: microscopy images of HL60 MDR cells treated with cerulenin. Conditions: FIGS. 4E and 4F. It is filed as cell-based, human.
Excerpt: as §5

In assay [7] the test system is B16F1 melanoma cells. Put plainly: B16F1 melanoma cells exposed to cerulenin, then injected into male mice. The assay is classed as in vivo. The protocol: Highly carcinogenic B16F1 melanoma cells were either exposed (“treated”) or not exposed to cerulenin, then injected into male mice.
Day 0 @2:45 pm injected with B16F1 10^6 cells in PBS, Treatment w/25 ug/ml cerulenin 5.0 hrs
Day 0 injected w/B16F1 10^6 cells in PBS, Treatment w/25 ug/ml cerulenin 5.0 h
Day 0 @2:45 pm injected w/B16F1 (10^6 cells in PBS) Treatment w/25 ug/ml cerulenin 5 h

Structures are written as SMILES.

Take `O=CC[C@@H](O)[C@H](O)[C@H](O)CO` [2-deoxy-D-glucose]: the “percent of cell deaths” value stood at 16% in the assay on HL60 MDR cells [1] (HL60 MDR, 24 hours, 2-deoxy-D-glucose at 2.5 mM, etomoxir as in FIG. 27); 38% in the assay on HL60 MDR cells [1] (HL60 MDR, 48 hours, concentrations as in FIG. 31); 46% in [2] (24 hours, concentrations as in FIG. 29); 63% in [2] (48 hours, concentrations as in FIG. 33). In addition, the “tumor growth versus control” value with HL60 MDR tumor (21 day period, single agent) is recorded as “increase in tumor growth”. Moreover, the “tumor volume, Day 7” value with HL60 MDR tumor (Day 7 after implantation (start of treatment), 200 ug Etomoxir and/or 2.5 mM 2-Deoxy-D-glucose daily IP) is 35 mm^3. Moreover, the “tumor volume, Day 9” value in the assay with HL60 MDR tumor (Day 9, 200 ug Etomoxir and/or 2.5 mM 2-Deoxy-D-glucose daily IP) was 51.56 mm^3. In the assay on HL60 MDR tumor (Day 15, 200 ug Etomoxir and/or 2.5 mM 2-Deoxy-D-glucose daily IP), the “tumor volume, Day 15” value was 158.55 mm^3. Also, the “tumor volume, Day 21” value in the assay on HL60 MDR tumor (Day 21, 200 ug Etomoxir and/or 2.5 mM 2-Deoxy-D-glucose daily IP) is reported as 1,181.61 mm^3.

Turning to `C/C=C/C/C=C/CCC(=O)[C@H]1O[C@H]1C(N)=O` [Cerulenin, cerulenin], the “B16F1 % Death” value is on record as 61% with B16F1 melanoma cells [3] (Table 1; 25 ug/mL Cerulenin; 5.0 Hours); 90% in the assay on B16F1 melanoma cells [3] (Table 1; 25 ug/mL Cerulenin; 24 Hours); 67% with B16F1 melanoma cells [3] (Table 2; 25 ug/mL Cerulenin; 5.0 Hours); 72% in the assay with B16F1 melanoma cells [3] (Table 2; 25 ug/mL Cerulenin; 24 Hours); 89% in the assay with B16F1 melanoma cells [3] (Table 2; 24 Hours; 25 ug/mL Cerulenin). In addition, the “HL60 % Death” value with HL60 cells [4] (2.0 Hours) was determined as 11%; in the assay on HL60 cells [4] (24 Hours) it was 44%. In addition, the “cell death compared to control and non-multidrug resistant cancer cells” value in the assay on HL60 MDR cells [1] (HL60 MDR, after treatment with cerulenin) is recorded as “greater amounts of cell death”; with L1210 DDP cells (L1210 DDP, after treatment with cerulenin), “greater amounts of cell death”. In addition, the figures for the “HL60 MDR % Death” value in the assay on HL60 MDR cells [1] (2.0 Hours) and in the assay with HL60 MDR cells [1] (24 Hours) were 13% and 99.6%, respectively. Moreover, the “L1210 % Death” value with L1210 cells is reported as 27%. The “L1210 DDP % Death” value in the assay on L1210 DDP cells (7.0 Hours) stood at 14%; in the assay on L1210 DDP cells (24 Hours), 92%. For the same compound, the “cell survival seen in microscopy images” value with HL60 cells [5] was “large numbers of the cells survived”. The “cell death seen in microscopy images” value in the assay on HL60 MDR cells [6] is given as “large numbers of cell death”. The “development of lethal cancers” value in the assay with B16F1 melanoma cells [7] (male mice injected with B16F1 cells treated with 25 ug/ml cerulenin 5.0 hrs) is “did not develop lethal cancers”. In addition, in the assay on B16F1 melanoma cells [7] (single mice (#7, #8, #9), 10^6 B16F1 cells treated w/25 ug/ml cerulenin 5.0 hrs, Day 9), the “tumor observation, Day 9” value was “no visible sign of tumors”. In the assay with B16F1 melanoma cells [7] (single mice (#7, #8, #9), 10^6 B16F1 cells treated w/25 ug/ml cerulenin 5.0 hrs, Day 12), the “tumor observation, Day 12” value is listed as “no visible tumors”. The “tumor observation, Day 13” value in the assay on B16F1 melanoma cells [7] (single mice (#7, #8, #9), 10^6 B16F1 cells treated w/25 ug/ml cerulenin 5.0 hrs, Day 13) is “no visible tumors”.
